# Test results as given in US6232305A, “Substituted amino bicyclic-β-lactam penam and cepham derivatives as cysteine protease inhibitors” (Naeja Pharmaceutical Inc., priority 1998, dated 2001).
# How the values were obtained:
# Cathepsin L = Cathepsin L (Rattus norvegicus, UniProt P07154); assay: In vitro inhibition of cathepsin L; assay type: biochemical; details: r rat cathepsin L; substrate N-CBZ-Phe-Arg-AMC; pH 5.0; 10 min incubation at room temperature
# Protocol: (§1) TEST EXAMPLE 2 In Vitro Assay Procedure for Cathepsin L […] After 10 min of incubation at room temperature, a 20 μl of 1 mM substrate (N-CBZ-Phe-Arg-AMC, dissolved in DMSO) was added to initiate reaction. Reading is followed up for 10 min at the fluoroscan reader (excitation at 380 nm emission at 460 nm).
# Cathepsin B = Cathepsin B (Rattus norvegicus, UniProt P00787); assay: In vitro inhibition of cathepsin B; assay type: biochemical; details: r rat cathepsin B; substrate N-CBZ-Phe-Arg-AMC; pH 5.1; 10 min incubation at room temperature
# Protocol: as §1, with “EXAMPLE 1” for “EXAMPLE 2”, “Cathepsin B The compounds of formula I were tested for inhibition of cathepsin B using the known method (A. J. Barret et al., Biochem. J. 1982, 201, 189-198).” for “Cathepsin L”, “of 5” for “of 1”
# Chain of Cathepsin B (P00787 80-339): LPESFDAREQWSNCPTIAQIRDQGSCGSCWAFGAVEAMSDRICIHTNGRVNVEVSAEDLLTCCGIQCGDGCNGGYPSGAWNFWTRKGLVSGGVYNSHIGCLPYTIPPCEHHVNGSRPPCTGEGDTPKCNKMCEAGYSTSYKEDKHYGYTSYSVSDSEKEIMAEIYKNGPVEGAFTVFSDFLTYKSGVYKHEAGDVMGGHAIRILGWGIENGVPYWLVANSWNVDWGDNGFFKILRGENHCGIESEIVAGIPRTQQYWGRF
# Chain of Cathepsin L (P07154 114-334): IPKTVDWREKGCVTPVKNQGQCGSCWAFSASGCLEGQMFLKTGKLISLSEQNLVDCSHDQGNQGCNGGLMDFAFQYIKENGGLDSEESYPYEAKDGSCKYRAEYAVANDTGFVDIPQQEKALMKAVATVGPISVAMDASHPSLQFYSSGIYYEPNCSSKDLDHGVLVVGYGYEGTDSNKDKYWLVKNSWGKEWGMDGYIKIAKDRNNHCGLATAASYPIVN
SMILES,IC50 (Cathepsin L) [nM],IC50 (Cathepsin B) [µM]
"O=C(N[C@@H](Cc1ccccc1)C(=O)N[C@@H]1C(=O)N2CCS[C@@H]12)OCc1ccccc1 [Example 1, (5S,6R)-6-(2S-2-benzyloxycarbonylamino-2-phenylmethyl-acetamido)-4-thia-1-azabicyclo [3,2,0] heptan-7-one]",6680,> 50
"O=C(N[C@@H](Cc1ccccc1)C(=O)N[C@@H]1C(=O)N2CCS(=O)(=O)[C@@H]12)OCc1ccccc1 [Example 2, (5S,6R)-6-(2S-2-benzyloxycarbonylamino-2-phenylmethyl-acetamido)-4,4-dioxo-4-thia-1-azabicyclo [3,2,0] heptan-7-one]",1.4,0.35
"O=C(N[C@@H](Cc1ccccc1)C(=O)N[C@@H]1C(=O)N2CCS(=O)(=O)[C@H]12)OCc1ccccc1 [Example 3, (5R,6R)-6-(2S-2-benzyloxycarbonylamino-2-phenylmethyl-acetamido)-4,4-dioxo-4-thia-1-azabicyclo [3,2,0] heptan-7-one]",9.6,6.01
"O=C(CCc1ccccc1)N[C@@H](CC1CCCCC1)C(=O)N[C@@H]1C(=O)N2CCS[C@@H]12 [Example 4, (5S,6R)-6-{2S-2-(3-phenylpropionoyl)amino-2-cyclohexylmethyl-acetamido}-4-thia-1-azabicyclo [3,2,0] heptan-7-one]",> 50000,> 50
"O=C(CCc1ccccc1)N[C@@H](CC1CCCCC1)C(=O)N[C@@H]1C(=O)N2CCS(=O)(=O)[C@@H]12 [Example 5, (5S,6R)-6-{2S-2-(3-phenylpropionoyl)amino-2-cyclohexylmethyl-acetamido}-4,4-dioxo-4-thia-1-azabicyclo [3,2,0] heptan-7-one]",0.7,0.43
"O=C(CCc1ccccc1)N[C@@H](Cc1ccc2ccccc2c1)C(=O)N[C@@H]1C(=O)N2CCS[C@@H]12 [Example 6, (5S,6R)-6-{2S-2-(3-phenylpropionoyl)amino-2-(2-naphthyl)methyl-acetamido}-4-thia-1-azabicyclo [3,2,0] heptan-7-one]",430,10.5
"O=C(CCc1ccccc1)N[C@@H](Cc1ccc2ccccc2c1)C(=O)N[C@@H]1C(=O)N2CCS(=O)(=O)[C@@H]12 [Example 7, (5S,6R)-6-{2S-2-(3-phenylpropionoyl)amino-2-(2-naphthyl)methyl-acetamido}-4,4-dioxo-4-thia-1-azabicyclo [3,2,0] heptan-7-one]",3,0.39
"O=C(CCc1ccccc1)N[C@@H](Cc1cccs1)C(=O)N[C@@H]1C(=O)N2CCS[C@@H]12 [Example 8, (5S,6R)-6-{2S-2-(3-phenylpropionoyl)amino-2-(2-thienyl)methyl-acetamido}-4-thia-1-azabicyclo [3,2,0] heptan-7-one]",11600,> 50
"O=C(CCc1ccccc1)N[C@@H](Cc1cccs1)C(=O)N[C@@H]1C(=O)N2CCS(=O)(=O)[C@@H]12 [Example 9, (5S,6R)-6-{2S-2-(3-phenylpropionoyl)amino-2-(2-thienyl)methyl-acetamido}-4,4-dioxo-4-thia-1-azabicyclo [3,2,0] heptan-7-one]",3,0.43
"O=C(CCc1ccccc1)N[C@@H](Cc1cccc(F)c1)C(=O)N[C@@H]1C(=O)N2CCS[C@@H]12 [Example 10, (5S,6R)-6-{2S-2-(3-phenylpropionoyl)amino-2-(3-fluorophenyl)methyl-acetamido}4-4-thia-1-azabicyclo [3,2,0] heptan-7-one]",11300,> 50
"O=C(CCc1ccccc1)N[C@@H](Cc1cccc(F)c1)C(=O)N[C@@H]1C(=O)N2CCS(=O)(=O)[C@@H]12 [Example 11, (5S,6R)-6-{2S-2-(3-phenylpropionoyl)amino-2-(3-fluorophenyl)methyl-acetamido}-4,4-dioxo-4-thia-1-azabicyclo [3,2,0] heptan-7-one]",3.3,1
"O=C(N[C@@H](Cc1cccnc1)C(=O)N[C@@H]1C(=O)N2CCS[C@@H]12)OCc1ccccc1 [Example 12, (5S,6R)-6-{2S-2-benzyloxycarbonylamino-2-(3-pyridyl)methyl-acetamido}-4-thia-1-azabicyclo [3,2,0] heptan-7-one]",11700,> 50
"O=C(N[C@@H](Cc1cccnc1)C(=O)N[C@@H]1C(=O)N2CCS(=O)(=O)[C@@H]12)OCc1ccccc1 [Example 13, (5S,6R)-6-{2S-2-benzyloxycarbonylamino-2-(3-pyridyl)methyl-acetamido}-4,4-dioxo-4-thia-1-azabicyclo [3,2,0] heptan-7-one]",1.7,1.3
"O=C(N[C@@H](Cc1ccccc1)C(=O)N[C@@H]1C(=O)N2CCCS[C@@H]12)OCc1ccccc1 [Example 14, (6S,7R)-7-(2S-2-benzyloxycarbonylamino-2-phenylmethyl-acetamido)-5-thia-1-azabicyclo [4,2,0] octan-8-one]",> 50000,> 50
"O=C(N[C@@H](Cc1ccccc1)C(=O)N[C@@H]1C(=O)N2CCCS(=O)(=O)[C@@H]12)OCc1ccccc1 [Example 15, (6S,7R)-7-(2S-2-benzyloxycarbonylamino-2-phenylmethyl-acetamido)-5,5-dioxo-5-thia-1-azabicyclo [4,2,0] octan-8-one]",2120,> 50
"O=C(N[C@@H](Cc1ccccc1)C(=O)N[C@@H]1C(=O)N2CCCS(=O)(=O)[C@H]12)OCc1ccccc1 [Example 16, (6R,7R)-7-(2S-2-benzyloxycarbonylamino-2-phenylmethyl-acetamido)-5,5-dioxo-5-thia-1-azabicyclo [4,2,0] octan-8-one]",,> 50
"O=C(N[C@@H](Cc1ccccc1)C(=O)N[C@@H]1C(=O)N2CC(O)CS[C@@H]12)OCc1ccccc1 (stereo partly drawn) [Example 17, (6S,7R)-7-(2S-2-benzyloxycarbonylamino-2-phenylmethyl-acetamido)-3-hydroxy-5-thia-1-azabicyclo [4,2,0] octan-8-one]",2190,> 50
"COC(=O)[C@@H]1N2C(=O)[C@@H](NC(=O)[C@H](Cc3ccccc3)NC(=O)OCc3ccccc3)[C@H]2S(=O)(=O)C1(C)C [Example 18, Methyl (2S,5R,6R)-6-(2S-2-benzyloxycarbonylamino-2-phenylmethyl-acetamido)-3,3-dimethyl-7-oxo-4,4-dioxo4-thia-1-azabicyclo[3,2,0]heptane-2-carboxylate]",1740,28.2
"CC1(C)[C@H](C(=O)O)N2C(=O)[C@@H](NC(=O)[C@H](Cc3ccccc3)NC(=O)CCc3ccccc3)[C@H]2S1(=O)=O [Example 19, (2S,5R,6R)-6-{2S-2-(3-phenylpropionoyl)amino-2-phenylmethyl-acetamido}-3,3-dimethyl-7-oxo-4,4-dioxo-4-thia-1-azabicyclo [3,2,0] heptane-2-carboxylic acid]",6770,> 50
"O=C(N[C@H](Cc1ccccc1)C(=O)N[C@@H]1C(=O)N2CCS(=O)(=O)[C@@H]12)OCc1ccccc1 [Example 20, (5S,6R)-6{2R-2-benzyloxycarbonylamino-2-phenylmethyl-acetamido}-4,4-dioxo4-thia-1-azabicyclo[3,2,0] heptan-7-one]",44,> 50
"O=C(N[C@@H](Cc1ccccc1)C(=O)N[C@@H]1C(=O)N2CC[S+]([O-])[C@@H]12)OCc1ccccc1 (stereo partly drawn) [Example 21, (5S,6R)-6-{2S-2-benzyloxycarbonylamino-2-phenylmethyl-acetamido}-4-oxo-4-thia-1-azabicyclo [3,2,0] heptan-7-one]",68,16.4
